Laboratory results published in patent US20170246176A1, “PHACOSCLEROSIS INHIBITOR” (KEIO UNIVERSITY, priority 2014, published 2017).

Experiments:
[1] = test system: cornea state of the rat exposed to mainstream smoke; test: Fluorescent staining of cornea after smoking treatment by exposure to mainstream smoke; format: in vivo, Sprague-Dawley (SD) rats; conditions: male SD rats, smoking treatment 12 days, instillation 5 μL per eye, once before and 3 times after smoking treatment, 0.1% tiopronin or 0.005% pirenoxine (Catalin)
Experimental: (§1) Male 6-8-week-old Sprague-Dawley (SD) rats were divided into 4 groups, each group with 4 rats, and they were used as a nonsmoking treatment group (NT), a smoking treatment group (Smoking), a smoking treatment+0.1% tiopronin instillation group (S+0.1% Tiopronin), and a smoking treatment +0.005% pirenoxine instillation group (S+Catalin).
Tiopronin (Thiola Tab. 100, manufactured by Mylan EPD) was prepared to provide an active ingredient amount of 0.1 w/v %, whereby an ophthalmic solution was produced. Catalin For Ophthalmic 0.005% (manufactured by Senju Pharmaceutical Co., Ltd.) was used for the 0.005% pirenoxine instillation group. Each eye was instilled with 5 μL per instillation. Instillation was performed for 12 days, once before the following smoking treatment and 3 times after the treatment.
The smoking treatment was performed as follows by reference to the method of Higuchi et al. (Free Radic. Biol. Med., 2011, Vol. 51, pages 2210-2216). Rats were placed in a smoking chamber and 300 mL of mainstream smoke was added into the chamber with a syringe. Male 6-8-week-old SD rats (maximum 12 rats) were placed in a smoking chamber (60 cm×40 cm×35 cm) produced for the experiment, and fresh air was supplied into the chamber with an air pump. Tobacco (Seven Star. (registered trade mark)) was set on a 50 mL syringe, and the mainstream smoke was sucked and blown into the chamber. This suction operation was repeated 6 times, a total 300 mL of the mainstream smoke was added into the chamber, and the rats were left standing for 30 min while delivering fresh air by the pump. A similar operation was repeated 5 times more (total 6 times), thereby exposing the rats to the mainstream smoke for 3 hr in total per day. […] The body weight of the rats that underwent the smoking treatment for 12 days and the nonsmoking group was measured, and cornea, lacrimal gland, crystalline lens were harvested. […] Of the rats that underwent the smoking treatment, the instillation group (S+Tiopronin, S+Catalin) and the noninstillation group (Smoking) were compared for the fluorescence score.

[2] = test system: hardening of crystalline lens due to exposure to mainstream smoke in rat; test: Measurement of crystalline lens hardness after smoking treatment; format: in vivo, Sprague-Dawley (SD) rats; conditions: male SD rats, smoking treatment 12 days; instillation 5 μL per eye, once before and 3 times after smoking treatment; 0.1% tiopronin or 0.005% pirenoxine (Catalin); Dunnett method, p<0.01
Experimental: as §1
Tiopronin (Thiola Tab. 100, manufactured by Mylan EPD) was prepared to provide an active ingredient amount of 0.1 w/v %, whereby an ophthalmic solution was produced. Catalin For Ophthalmic 0.005% (manufactured by Senju Pharmaceutical Co., Ltd.) was used for the 0.005% pirenoxine instillation group. Each eye was instilled with 5 μL per instillation. […]
The smoking treatment was performed as follows by reference to the method of Higuchi et al. (Free Radic. Biol. Med., 2011, Vol. 51, pages 2210-2216). […] The body weight of the rats that underwent the smoking treatment for 12 days and the nonsmoking group was measured, and cornea, lacrimal gland, crystalline lens were harvested. […] Of the rats that underwent the smoking treatment, the instillation group (S+Tiopronin, S+Catalin) and the noninstillation group (Smoking) were compared for the fluorescence score.
The crystalline lens isolated from the eyeball in Example 1 was measured for the crystalline lens hardness by the following method. […]

Row | SMILES | fluorescent staining score of cornea (corneal state), instillation group vs noninstillation smoking group [1] | hardness of the crystalline lens (weight divided by distance), vs smoking treatment group [2] | fluorescent staining score of cornea (corneal state), instillation group vs noninstillation smoking group ([1]; listed as Catalin)
1 | CC(S)C(=O)NCC(=O)O (centres unmarked) [tiopronin, N-(2-mercaptopropionyl)glycine] | exacerbation of the corneal state due to instillation was not found | an increase in the hardness was significantly suppressed | 
2 | O=C(O)c1cc(O)c2c3nc4ccccc4oc-3cc(=O)c2n1 [pirenoxine, 1-hydroxy-5-oxo-5H-pyrido[3,2-α]phenoxazine-3-carboxylic acid] | showed a tendency toward improvement | an increase in the hardness was significantly suppressed | exacerbation of the corneal state due to instillation was not found
